The subject of one experiment is His6-GlgX (Vnz29170). Description: nanoDSF label-free thermal shift assay, wild-type GlgX. It is filed as binding, Streptomyces venezuelae. The following applies: 10 µM GlgX, 1 mM ligand; without ligand 51.5 °C. The protocol: Fig. 1 GlgX binds c-di-GMP. a Quantification of c-di-GMP in S. venezuelae cell extracts using LC-MS/MS. Cells were harvested during late vegetative growth (8–10 h), transition to sporulation (12–16 h), and sporulation (18–20 h). Data are presented as the mean of biological replicates ±SD (n = 3). […] Source data are provided in the Source data file. c [^32P]-c-di-GMP binds to GlgX in DRaCALA assay indicated by dark spots in the center of the nitrocellulose membrane. For competition, excess (100 µM) of unlabeled c-di-GMP, c-di-AMP, or GTP was added to the reaction containing [^32P]-c-di-GMP and GlgX.
To determine if the interaction between Vnz29170 (herein called GlgX) and c-di-GMP is direct, we purified an N-terminally His6-tagged GlgX protein and performed nano differential scanning fluorimetry (nanoDSF) thermal shift assays. […]
For label-free thermal shift assay experiments, 10 μM purified protein in 25 mM Tris pH 8, 150 mM NaCl, 2.5% (v/v) glycerol, and 5 mM MgCl2 was incubated without or with (1 mM) of nonlabeled c-di-GMP or c-di-AMP, respectively, at rt for 10 min. Reactions were subsequently analyzed in a Tycho NT.6 (NanoTemper Technologies) device with a 30 K/min thermal ramp and the internal fluorescence at 330 and 350 nm was recorded. […]
(Differential scanning fluorimetry follows unfolding on heating by fluorescence.)

Another experiment concerns His6-Vnz25270. The experiment can be described thus: nanoDSF thermal shift assay, GlgX paralog Vnz25270. In kind it is binding, Streptomyces venezuelae. The following applies: 10 µM His6-Vnz25270, 1 mM c-di-GMP. The protocol:
For label-free thermal shift assay experiments, 10 μM purified protein in 25 mM Tris pH 8, 150 mM NaCl, 2.5% (v/v) glycerol, and 5 mM MgCl2 was incubated without or with (1 mM) of nonlabeled c-di-GMP or c-di-AMP, respectively, at rt for 10 min. Reactions were subsequently analyzed in a Tycho NT.6 (NanoTemper Technologies) device with a 30 K/min thermal ramp and the internal fluorescence at 330 and 350 nm was recorded. Data analysis and calculation of derivatives was done using the internal evaluation features of the Tycho instrument.
(a) 15 µg of purified E. coli His6-GlgX
167 or His6-Vnz25270, respectively, were mixed with 0.5 µl of [32P]-c-di-GMP (Hartmann Analytic
168 GmbH, Braunschweig) in binding buffer (25 mM Tris pH 8.0, 150 mM NaCl, 2.5% (v/v) glycerol
169 and 5 mM MgCl2). 10 µL of the reactions were spotted on the same nitrocellulose membrane (Roth),
170 air dried for 10 min and analyzed by phosphorimaging. (b, c) 10 µM purified His6-Vnz25270 (b) or
171 His6-GlgXE.coli (c) in 25 mM Tris pH 8.0, 150 mM NaCl, 2.5% (v/v) glycerol and 5 mM MgCl2 were
172 incubated without or with (1 mM) c-di-GMP. Reactions were analyzed in a Tycho NT.6
173 (NanoTemper Technologies) device.
(1 picture or pasted object on this page, not shown here)

A further experiment addresses [RsiG + WhiG]. Set-up: method as in PMID 25171413, PMID 31810759. The conditions noted are these: cited from earlier work.
Another experiment has as its system GlgXE47A-R49A. The experiment can be described thus: Fluorescence polarization binding, GlgXE47A-R49A. Set-up: species or system Streptomyces venezuelae. The text has this: Fig. 5 Structure of the S. venezuelae GlgX-c-di-GMP complex. a Ribbon diagram of the S. venezuelae GlgX-c-di-GMP complex with one GlgX subunit colored cyan and the other salmon. Shown as sticks are the c-di-GMP molecules bound at each end of the antiparallel dimer. […] There was clear density for each c-di-GMP molecule. b Close up of the GlgX-c-di-GMP binding interaction. Key residues mediating contacts to the c-di-GMP are shown as sticks and labeled. Hydrogen bonds from GlgX residues that specify binding to the guanine are indicated by yellow dashed lines. c Fluorescence polarization (FP) binding isotherm showing interaction of GlgX, GlgXE47A-R49A and GlgXR438A-R579A for F-c-di-GMP in red, green and blue respectively. Also shown is the binding isotherm for GlgX binding to F-c-di-AMP in black. […] The y-axis and x-axis are millipolarization (mP) units and GlgX concentration (μM), respectively. Shown are representative binding curves for each. The experiments were performed in technical triplicates and the error between measurements reported. […]
Thus, we used this F-tagged c-di-GMP in fluorescence polarization (FP) studies to quantify the interaction between GlgX and c-di-GMP. […] To ensure that the presence of the fluorescent tag was not impacting the GlgX interaction with c-di-GMP we used microscale thermophoresis (MST) to quantify c-di-GMP binding to GlgX. […]
In general terms: In fluorescence polarisation assays a small probe gives low polarisation when free and higher when bound to something large.

In the case of `Nc1nc2c(ncn2[C@@H]2O[C@@H]3CO[P@](=O)(O)O[C@H]4[C@@H](O)[C@H](n5cnc6c(=O)[nH]c(N)nc65)O[C@@H]4CO[P@](=O)(O)O[C@H]3[C@H]2O)c(=O)[nH]1` [c-di-GMP, bis-(3′−5′)-cyclic diguanosine monophosphate], the “melting point of His6-GlgX in the presence of ligand” value in the experiment on His6-GlgX (Vnz29170) is 55.8 °C. Moreover, the “interaction with c-di-GMP by nanoDSF” value in the experiment on His6-Vnz25270 was “did not detect any interactions”. In addition, the Kd (commonly the concentration at which binding is half-saturated) in experiment [RsiG + WhiG] was 0.39 ± 0.05 µM. For the same molecule, in the experiment on GlgXE47A-R49A, the “binding to mutant in FP” value is listed as “weak, nonsaturable binding”.

Source of the values: publication PMC9530166, “Allosteric regulation of glycogen breakdown by the second messenger cyclic di-GMP” (Nature Communications, 2022).
